From patent US10723998B2, “Application of ethyl p-methoxycinnamate and derivatives thereof in maintaining self-renewal and pluripotency of stem cells” (NORTHEAST NORMAL UNIVERSITY, priority 2015, dated 2020)

Assays:
Oct4 promoter = Oct4 promoter luciferase reporter assay (pGL3-Oct4P-Basic) in P19 cells; assay type: cell-based, mouse; details: 5 μg/mL, 12-24 h, DMSO control, FIG. 1
Excerpt: According to a method described in literature (Yang H M, Do H J, Oh J H, et al. Characterization of putative cis-regulatory elements that control the transcriptional activity of the human Oct4 promoter[J]. Journal of cellular biochemistry, 2005, 96(4):821-830), the promoter of Oct4 gene was picked and cloned into pGL3-Basic, so as to construct pGL3-Oct4P-Basic reporter plasmid. One day before transfection, mouse teratoma cells P19 were inoculated into a 6-well cell culture plate at a density of 2×10^5 cells/well to make the cells grown to about 80% before transfection. […]
Luciferase Reporter Assay System and FluoStar Optima were used to assay the luciferase activity of the transfected cell lysis solution. To 45 μL of the cell lysis solution was added 5 μL of Assay Cocktail reagent, after they were mixed well, 100 μL of Luciferin reaction solution was added, and fluorescence counting in 2 s was measured using FluoStar Optima instrument, which reflected the activity level of the studied plasmid reporter genes expressing firefly luciferase. […] An absorption value at 450 nm was assayed using a microplate reader, which reflected the activity level of internal reference plasmid pCMV-β-gal expressing β-galactosidase. […] The relative luciferase activity of different samples was calculated through the following equation: […]

Oct4 protein = Oct4 protein expression by Western Blot in P19 cells; assay type: cell-based, mouse; details: 5 μg/mL, 24 h, DMSO control, FIG. 3
Method: The effect of ethyl p-methoxycinnamate on Oct4 protein expression was assayed using a Western Blot method. Mouse teratoma cells P19 were inoculated in a 6-well plate. After 24 h, ethyl p-methoxycinnamate with a final concentration of 5 μg/mL was added to continue to act for another 24 h, and the control group was treated with DMSO. After the cells were washed with PBS three times, the cells were scraped with a scraper, transferred to an EP tube, and centrifuged at 4000 rpm for 5 min. The supernatant was discarded. 90 μL of lysis solution (50 mM Tris-HCl pH 7.5, 150 mM NaCl, 1 mM NaF, 0.5% NP-40, 2 μg/mL Aprotinin, and 1 mM PMSF) was added to each tube of precipitate, and the EP tube was treated on ice for 30 min and vortexed once every 5 min, so that the cells were completely lysed. After centrifugation at 12000 rpm for 10 min, the supernatant was transferred to a new EP tube, 1/3 volume of 4× protein loading buffer was added, mixed well, and boiled for 10 min, and after instantaneous centrifugation, the mixture was subjected to electrophoresis or placed at −80° C. to be frozen for standby use.
A transfer membrane buffer was prepared and precooled at 4° C. A PVDF membrane was soaked in methanol for 40 s, then taken out and soaked in the transfer membrane buffer for standby use. […]

In the case of `CCOC(=O)C=Cc1ccc(OC)cc1` [ethyl p-methoxycinnamate], the “effect on the activity of Oct4 promoter (relative luciferase activity)” value (Oct4 promoter) was “reached a statistically significant difference (*p<0.05)” and the “effect on the expression of Oct4 protein” value (Oct4 protein) was “can promote the expression of Oct4 protein”.
